Test [1] relates to resistant group (A427, H520, H1703, HCC15, H358, HCC95, H187, SW1271, H526, and DMS153 cells). As to the kind of experiment: FGFR dependency of cancer cell lines (cellular ATP content after 96 hours). It counts as cell-based. On the procedure:
(§1) FIG. 7. Protein expression of MYC was silenced by stable lentiviral transduction of FGFR dependent H1581 cells as well as HCC15, H2882, and HCC95 controls. Knockdown efficiency was validated by immunoblotting for H1581, H2882, and HCC15 cells (top). FGFR dependency was determined by measuring cellular ATP content after 96 hours (bottom).
(§2) FIG. 9. Segregation of FGFR1 amplification with RNA expression levels of MYC Cancer cell lines were divided into an FGFR-dependent (H1581, DMS114, and HCC1599) GI 50<500 nmol/L, PD173074) versus resistant group (A427, H520, H1703, HCC15, H358, HCC95, H187, SW1271, H526, and DMS153 cells). Expression levels were compared by the Student t test. wt, wild-type.

Test [2] concerns FGFR-dependent cancer cell lines (H1581, DMS114, and HCC1599). Described as above. It counts as cell-based. Particulars: FGFR-dependent group: H1581, DMS114, HCC1599. The method, then:
as §1, §2

Test [3] relates to FGFR-dependent H1581 cells. Kind of test: Induction of apoptosis (Annexin-V/PI, flow cytometry). It counts as cell-based. The conditions noted are these: 1 μmol/L, 72-hour. An excerpt:
(§3) FIG. 3. Induction of apoptosis (Annexin-V/PI, flow cytometry) in NIH3T3 cells, (co-) transduced with FGFR1β+/−MYC, by 72-hour FGFR inhibition (PD173074, 1 μmol/L). FGFR-dependent H1581 cells (PD173074, 1 μmol/L) as well as ALK-dependent NIH3T3-EML4-ALK
cells (TAE684, 1 μmol/L) were used as positive controls. Resistant HCC15 and NIH3T3-e.V. cells served as negative controls. *, Significant induction of apoptosis.
(In general: Flow cytometry measures light scatter and fluorescence of single cells or particles in a stream.)

For test [4], the system named is FGFR-dependent cell lines. Kind of test: Mitochondrial apoptosis mediators upon FGFR inhibition. Particulars: 1 μmol/L, after 72 hours. In kind it is cell-based.
Test [5] deals with NIH3T3 cells expressing FGFR1 alone. As to the kind of experiment: Induction of apoptosis (Annexin-V/PI, flow cytometry). In kind it is cell-based. Particulars: 1 μmol/L, 72-hour FGFR inhibition.
Excerpt: as §3
(§4) cells (TAE684, 1 μmol/L) were used as positive controls.

The test system of test [6] is FGFR1-MYC cotransduced NIH3T3 cells. Described as above. It counts as cell-based. Particulars: 1 μmol/L, 72-hour FGFR inhibition.
Excerpt: as §3, §4

Test [7] has as its system FGFR1-amplified HCC95 and H520 cells and NRAS-mutant HCC15 cells. As to the kind of experiment: Immunoblotting of MYC and cyclin D1 expression upon FGFR inhibition. It counts as cell-based. The conditions noted are these: 1 μmol/L, 24 hours. On the procedure:
(§5) FIG. 6. FGFR1-amplified H1581, DMS114, and HCC95 cells as well as HCC15 (NRAS mut) controls were treated with PD173074 (1 μmol/L, 24 hours). Expression levels of MYC, cyclin D1, and actin as well as ERK phosphorylation were monitored by immunoblotting. Con.: positive control NIH3T3-FGFR1β cells.
In general terms: In western blotting, separated proteins are transferred to a membrane and probed.

Test [8] relates to FGFR-dependent cell lines H1581 and DMS114. The description is as above. Particulars: 1 μmol/L, within 24 hours. It counts as cell-based. On the procedure:
as §5

Test [9] relates to stage IV squamous cell lung cancer with FGFR1 amplification and MYC score of 3. As to the kind of experiment: Patient treated with BGJ398 in first-in-humans trial (CT, RECIST 1.1). It counts as in vivo, human. Particulars: 100 mg. An excerpt: FIG. 11. […] The sample was scored (degrees 0-3) by FGFR1 dual-color FISH (top, normalized copy-number ratio) as well as MYC IHC (bottom, nuclear staining intensity).
FIG. 13. Fused scans of positron emission tomography (PET) and computer tomography (CT) before (top left, baseline) and after the beginning of BGJ389 therapy (top right, 4 weeks). […] Target lesions for evaluation of tumor response are highlighted by red arrows. IHC, immunohistochemistry.
We identified a person with a 70-packper-year smoking history. […] The patient agreed to treatment with BGJ398, a highly specific FGFR1 inhibitor, which was being evaluated in a first-in-humans trial at our center. After cardiac assessment and baseline thoracic computed tomography (CT), treatment with 100 mg BGJ398 was started.

For test [10], the system named is NIH3T3 cells expressing either of the mesenchymal FGFR1 splice variants. Kind of test: Xenograft mouse model, tumor volume. It counts as in vivo, nude mice. Particulars: 15 mg/kg, q.d. On the procedure:
(§6) FIG. 4. Nude mice, engrafted with retrovirally transduced NIH3T3 cells, received BGJ398 (15 mg/kg, q.d., lower curve) or 5% glucose (upper curve), respectively, upon formation of palpable tumors. Volumes of tumors formed by NIH3T3-FGFR1f3 cells (top) and NIH3T3-FGFR1β-MYC cells (bottom) were assessed every second day and compared by the t test. Error bars display SD of three independent experiments.
(§7) All animal procedures were approved by the local animal protection committee and the local authorities. Transduced NIH3T3 and tumor cells were resuspended in RPMI or DMEM medium and injected (5×10^6 cells per tumor) subcutaneously into the flanks of 8- to 15-week-old male nude mice [Rj:NMRI-nu (nu/nu), Janvier Europe] under 2.5% isoflurane anesthesia.
(§8) To assess the effect of FGFR1 inhibitors in vivo, NVP-BGJ 398 (Novartis) was dissolved in a vehicle solution (33% PEG300, 5% glucose) for xenograft application. Tumor size was monitored every second day by measurement of perpendicular diameters by an external caliper and calculated by use of the modified ellipsoid formula [V=½ (Length×Width 2)]. Oral therapy was started when tumors reached a volume of 100 mm 3. Mice received daily either
(§9) BGJ398 (15 mg/kg) or vehicle solution. After 14 (NIH3T3 FGFR1(3 +MYC), 16 (NIH3T3 EML4-ALK, KRAS G12V), or 25 (NIH3T3 e.V., FGFR1α/β) days of therapy, respectively, mice were sacrificed by intraperitoneal injection of ketamine/xylazine (300/60 mg/kg).

In another test the test system is NIH3T3-FGFR1β-MYC cells. Kind of test: Xenograft mouse model, tumor volume. Particulars: 15 mg/kg, q.d., tumors coexpressing FGFR1 and MYC; P<0.001. In kind it is in vivo, nude mice. The method, then: as §6, §7, §8, §9

The structures appear in SMILES notation. “Also recorded” adds a separate entry of the source.

A word on the GI50: it is the concentration giving 50% growth inhibition. Low readings indicate greater sensitivity of the cells, high ones lower sensitivity of the cells. With `CCN(CC)CCCCNc1ncc2cc(-c3cc(OC)cc(OC)c3)c(NC(=O)NC(C)(C)C)nc2n1` [PD173074], the FGFR dependency group result in [1] was “resistant”. For the same compound, the GI50 in [2] is under 500 nM. The Induction of apoptosis entry in test [3] was “induced apoptosis”. In addition, in test [4], the “Cytochrome C release” value was “occurred robustly” and the “Loss of the mitochondrial membrane potential” value was “occurred robustly”. Moreover, in test [5], the Induction of apoptosis result is given as “but not in cells expressing FGFR1 alone”. Further, the Induction of apoptosis result in [6] is recorded as “induced apoptosis”. For the same compound, the “Expression levels (MYC, cyclin D1)” value in [7] was “remained relatively stable”. In test [8], the “Levels of MYC” value is given as “decreased” and the “Levels of cyclin D1” value is given as “decreased”.

On to `CCN1CCN(c2ccc(Nc3cc(N(C)C(=O)Nc4c(Cl)c(OC)cc(OC)c4Cl)ncn3)cc2)CC1` [BGJ398], for which, in [9], the “Duration of therapy until progressive disease (kidney, RECIST1.1)” value is recorded as 10 months and the Symptoms entry is “improvement of symptoms”. Further, in [9] (CT scans after 4 and 8 weeks), the “Response according to RECIST 1.1 criteria” value was “partial response (PR)” and the “Tumor response on CT” value was “tumor regression; also recorded: regression without cavitation of the tumor”. Further, the Tumor growth result in [10] (oral, nude mice) is on record as “repressed tumor growth”. The Tumor shrinkage result in test [10] (tumors expressing FGFR1 alone) is given as “did not induce tumor shrinkage”. Also, the Tumor regression entry in the test on NIH3T3-FGFR1β-MYC cells is given as “led to regressions”.

The values above are taken from patent US20170166979A1, “PERSONALIZED TREATMENT OF CANCER USING FGFR INHIBITORS” (priority 2014, published 2017).
